Laboratory results taken from patent US20160223562A1, “Method for Determining the Concentration of a Peptide” (JPT Peptide Technologies GmbH, priority 2010, published 2016).
Square brackets hold non-standard residues; d marks the D form. Peptide text beside a SMILES is read from it. Tyr(3-NO2) = N[C@@H](Cc1ccc(O)c([N+](=O)[O-])c1)C(=O)O

Target: T1, Trypsin (Sus scrofa, UniProt P00761)
T1 construct: purchased Promega Corporation V511
Experiment: Trypsin cleavage of N-terminal quantification tag Ac-nitroTyr-SGK- from peptides, LC-MS with UV detection at 350 nm
Type: biochemical
Settings: trypsin protocol of example 9, 24 h, RT
Protocol: Trypsin Activation: Trypsin (20 μg, sequencing grade modified trypsin, Promega Corporation, Madison, Wis., USA, catalogue no. V511, specific activity 16.965 u/mg) was dissolved in Trypsin resuspension buffer (200 μL, Promega, catalogue no. V542A, ingredient 50 mM acetic acid) and incubated for 15 min at 37° C.
Reduction and alkylation: The peptide (approx. 0.05 mg) was dissolved in 1 M urea and 100 mM fresh ammonium hydrogen carbonate (300 μL). TCEP (Tris(2-carboxyethyl) phosphine hydrochloride, 0.2 M, 7.5 μL, final concentration 5 mM) was added and the solution incubated at 37° C. for 1 h. After addition of iodoacetamide (0.5 M, 6.0 μL, final concentration 10 mM) the solution was incubated at RT in the dark for another 30 min. Digestion: The sample was digested with activated Trypsin solution (10 μL per well, 1.0 μg, resulting enzyme/substrate ratio 1:50) over night at RT. To stop the digestion, HCl (2 M, 8 μL final concentration 50 mM) and TFA (3.2 μL, final concentration 1%, pH<2) were added. Finally, the sample was analyzed by LC-MS at 350 nm.
38 peptides carrying the N-terminal quantification-tag Ac-nitroTyr-SGK-(SEQ ID NO:32) were synthesized by SPOT synthesis (Table 3). The peptide sequences are based on two different amino acid sequences, which in each case contain 19 different amino acids N-terminally attached to lysine (the 20 naturally occurring amino acids except cysteine).
All peptides were subjected to the same trypsin cleavage protocol as described in example 9. It is apparent that the quantification tag is efficiently cleaved (>99%) in nearly all cases.

T1 sequence (P00761 9-231): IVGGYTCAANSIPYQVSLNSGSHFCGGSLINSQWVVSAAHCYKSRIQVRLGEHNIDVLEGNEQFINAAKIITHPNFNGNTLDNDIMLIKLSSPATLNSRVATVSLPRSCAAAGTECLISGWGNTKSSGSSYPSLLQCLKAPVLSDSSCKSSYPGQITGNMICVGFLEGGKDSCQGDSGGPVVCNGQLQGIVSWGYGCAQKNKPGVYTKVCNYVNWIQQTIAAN

Row | Structure (SMILES) | Kusebauch 24 h, RT: Percent Cleavage of Tag [by UV350 - Peptide-Tag vs. Tag] [%]
1 | CC(=O)N[C@@H](Cc1ccc(O)c([N+](=O)[O-])c1)C(=O)N[C@@H](CO)C(=O)NCC(=O)N[C@@H](CCCCN)C(=O)N[C@@H](Cc1c[nH]cn1)C(=O)N[C@H](C(=O)N[C@@H](C)C(=O)N[C@@H](CC(C)C)C(=O)N[C@@H](CO)C(=O)N[C@@H](CC(C)C)C(=O)N[C@@H](CC(=O)O)C(=O)N[C@@H](CC(=O)O)C(=O)N[C@H](C(=O)N[C@@H](CCCCN)C(=O)O)C(C)C)C(C)C [Peptide 27, Ac-nitroTyr-SGKHVALSLDDV-K-OH] (Ac-[Tyr(3-NO2)]SGKHVALSLDDVK-OH) | 100.0
2 | CC(=O)N[C@@H](Cc1ccc(O)c([N+](=O)[O-])c1)C(=O)N[C@@H](CO)C(=O)NCC(=O)N[C@@H](CCCCN)C(=O)N[C@H](C(=O)N[C@H](C(=O)N[C@@H](C)C(=O)N[C@@H](CC(C)C)C(=O)N[C@@H](CO)C(=O)N[C@@H](CC(C)C)C(=O)N[C@@H](CC(=O)O)C(=O)N[C@@H](CC(=O)O)C(=O)N[C@H](C(=O)N[C@@H](CCCCN)C(=O)O)C(C)C)C(C)C)C(C)C [Peptide 38, Ac-nitroTyr-SGKVVALSLDDV-K-OH] (Ac-[Tyr(3-NO2)]SGKVVALSLDDVK-OH) | 100.0
3 | CC(=O)N[C@@H](Cc1ccc(O)c([N+](=O)[O-])c1)C(=O)N[C@@H](CO)C(=O)NCC(=O)N[C@@H](CCCCN)C(=O)N[C@@H](CC(N)=O)C(=O)N[C@H](C(=O)N[C@@H](C)C(=O)N[C@@H](CC(C)C)C(=O)N[C@@H](CO)C(=O)N[C@@H](CC(C)C)C(=O)N[C@@H](CC(=O)O)C(=O)N[C@@H](CC(=O)O)C(=O)N[C@H](C(=O)N[C@@H](CCCCN)C(=O)O)C(C)C)C(C)C [Peptide 32, Ac-nitroTyr-SGKNVALSLDDV-K-OH] (Ac-[Tyr(3-NO2)]SGKNVALSLDDVK-OH) | 100.0
4 | CC(=O)N[C@@H](Cc1ccc(O)c([N+](=O)[O-])c1)C(=O)N[C@@H](CO)C(=O)NCC(=O)N[C@@H](CCCCN)C(=O)N[C@H](C(=O)N[C@H](C(=O)N[C@@H](C)C(=O)N[C@@H](CC(C)C)C(=O)N[C@@H](CO)C(=O)N[C@@H](CC(C)C)C(=O)N[C@@H](CC(=O)O)C(=O)N[C@@H](CC(=O)O)C(=O)N[C@H](C(=O)N[C@@H](CCCCN)C(=O)O)C(C)C)C(C)C)[C@@H](C)O [Peptide 37, Ac-nitroTyr-SGKTVALSLDDV-K-OH] (Ac-[Tyr(3-NO2)]SGKTVALSLDDVK-OH) | 100.0
5 | CC(=O)N[C@@H](Cc1ccc(O)c([N+](=O)[O-])c1)C(=O)N[C@@H](CO)C(=O)NCC(=O)N[C@@H](CCCCN)C(=O)N[C@@H](Cc1c[nH]c2ccccc12)C(=O)N[C@H](C(=O)N[C@@H](C)C(=O)N[C@@H](CC(C)C)C(=O)N[C@@H](CO)C(=O)N[C@@H](CC(C)C)C(=O)N[C@@H](CC(=O)O)C(=O)N[C@@H](CC(=O)O)C(=O)N[C@H](C(=O)N[C@@H](CCCCN)C(=O)O)C(C)C)C(C)C [Peptide 39, Ac-nitroTyr-SGKWVALSLDDV-K-OH] (Ac-[Tyr(3-NO2)]SGKWVALSLDDVK-OH) | 100.0
6 | CC(=O)N[C@@H](Cc1ccc(O)c([N+](=O)[O-])c1)C(=O)N[C@@H](CO)C(=O)NCC(=O)N[C@@H](CCCCN)C(=O)N1CCC[C@H]1C(=O)N[C@H](C(=O)N[C@@H](C)C(=O)N[C@@H](CC(C)C)C(=O)N[C@@H](CO)C(=O)N[C@@H](CC(C)C)C(=O)N[C@@H](CC(=O)O)C(=O)N[C@@H](CC(=O)O)C(=O)N[C@H](C(=O)N[C@@H](CCCCN)C(=O)O)C(C)C)C(C)C [Peptide 33, Ac-nitroTyr-SGKPVALSLDDV-K-OH] (Ac-[Tyr(3-NO2)]SGKPVALSLDDVK-OH) | 5.4
